Data reported in patent US7786141B2 (Vertex Pharmaceuticals Incorporated, priority 2004, dated 2010).
pEC50: −log10 of the molar value. Like-named read-outs stand apart in the source and are kept apart here.

Legend:
M4 muscarinic receptor = target: T1, M4 muscarinic receptor (Homo sapiens, UniProt P08173); assay: Functional mobilization of intracellular calcium (FLIPR) in M4-CHO cells; assay type: cell-based
T1 construct: expressed in transfected cells; host or cells: CHO (M4-CHO)
T1 sequence (P08173 1-479): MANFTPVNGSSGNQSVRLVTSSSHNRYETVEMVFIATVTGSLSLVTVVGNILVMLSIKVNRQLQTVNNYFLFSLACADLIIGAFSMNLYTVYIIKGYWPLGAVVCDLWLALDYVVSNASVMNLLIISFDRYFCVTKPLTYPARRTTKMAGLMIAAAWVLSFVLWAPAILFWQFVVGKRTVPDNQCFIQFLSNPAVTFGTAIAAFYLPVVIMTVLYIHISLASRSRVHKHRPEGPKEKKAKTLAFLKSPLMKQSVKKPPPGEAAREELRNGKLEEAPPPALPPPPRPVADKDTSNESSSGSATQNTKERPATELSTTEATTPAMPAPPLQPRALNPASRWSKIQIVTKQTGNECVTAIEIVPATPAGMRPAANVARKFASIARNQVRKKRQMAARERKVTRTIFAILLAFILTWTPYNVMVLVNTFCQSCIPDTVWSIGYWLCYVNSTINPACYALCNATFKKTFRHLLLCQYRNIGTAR
In short: (§1)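 CHO cells stably expressing human M1 or M4 receptor were loaded with Fluo-3 AM (or Calcium 3 dye) in Hepes-buffered saline, pH 7.4, with 1 mM probenecid, 0.5% final DMSO. Agonist mode: compound added directly; antagonist mode: 15 min preincubation before carbachol at EC80. FLIPR fluorescence recorded 60 sec.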

M1 muscarinic receptor = target: T2, M1 muscarinic receptor (Homo sapiens, UniProt P11229); assay: Functional mobilization of intracellular calcium (FLIPR) in M1-CHO cells; assay type: cell-based
T2 construct: expressed in transfected cells; host or cells: CHO (M1-CHO)
T2 sequence (P11229 1-460): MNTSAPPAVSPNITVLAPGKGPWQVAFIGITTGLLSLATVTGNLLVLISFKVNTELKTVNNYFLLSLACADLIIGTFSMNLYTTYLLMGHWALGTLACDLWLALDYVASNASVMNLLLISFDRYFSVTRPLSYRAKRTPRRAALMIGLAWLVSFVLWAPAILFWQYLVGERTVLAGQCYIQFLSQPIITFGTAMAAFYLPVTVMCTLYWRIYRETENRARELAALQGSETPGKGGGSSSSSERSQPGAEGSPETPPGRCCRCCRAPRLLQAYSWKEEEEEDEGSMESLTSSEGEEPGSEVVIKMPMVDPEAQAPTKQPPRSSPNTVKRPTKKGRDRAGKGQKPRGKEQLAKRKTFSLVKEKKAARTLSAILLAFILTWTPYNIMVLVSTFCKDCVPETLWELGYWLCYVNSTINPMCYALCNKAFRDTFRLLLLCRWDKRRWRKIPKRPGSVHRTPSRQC
In short: as §1

[1] = M4 receptor, calcium mobilization
[2] = M4 receptor, calcium mobilization, read-out: M4 Efficacy
[3] = M1 receptor, calcium mobilization
[4] = M1 receptor, calcium mobilization, read-out: M1 Efficacy
[5] = Table 4, 100% efficacy is the maximum response obtained with the Carbachol control
[6] = Table 4, modulating M4 receptor
[7] = Table 4, modulating M1 receptor
[8] = M4-CHO cells, calcium mobilization (FLIPR)
[9] = M4-CHO cells, calcium mobilization (FLIPR), read-out: M4 Efficacy
[10] = M1-CHO cells, calcium mobilization (FLIPR)
[11] = M1-CHO cells, calcium mobilization (FLIPR), read-out: M1 Efficacy
[12] = Table 4, M4 receptor, calcium mobilization (FLIPR)
[13] = Table 4, M1 receptor, calcium mobilization (FLIPR)

| SMILES | M4 Activity (M4 muscarinic receptor; [1]) | M1 Activity (M1 muscarinic receptor; [3]) | Emax (M4 muscarinic receptor; [5]) [%] | M4 Activity (M4 muscarinic receptor; [6]) | Emax (M1 muscarinic receptor; [5]) [%] | M1 Activity (M1 muscarinic receptor; [7]) | other results |
| --- | --- | --- | --- | --- | --- | --- | --- |
| COCCOC(=O)N1CCC(N2CCC3(CC2)CN(C(C)=O)c2ccc(F)cc23)CC1 [compound 284] | xx (activity was measured to be between 0.1 μM and 1.0 μM) | xx (activity was measured to be between 0.1 μM and 1.0 μM) |  |  |  |  | Emax (M4 muscarinic receptor; [2]): < 65%; Emax (M1 muscarinic receptor; [4]): < 65% |
| CCOC(=O)N1CCC(N2CCC3(CC2)CN(C2CCCCC2=O)c2ccc(F)cc23)CC1 (stereo not shown) [compound 751] |  |  | 25 to 100 | xxx (activity was measured to be less than 2.0 μM) | 25 to 100 | xxx (activity was measured to be less than 2.0 μM) |  |
| CCOC(=O)N1CCC(N2CCC3(CC2)CN(C(C)=O)c2c(-c4ccc(OC)cc4)cccc23)CC1 [compound 434] |  |  | 25 to 100 | xxx (activity was measured to be less than 2.0 μM) | 25 to 100 | x (activity was measured to be greater than 5.0 μM) |  |
| O=C(N[C@H]1CC2(CCN(C[C@@H]3C[C@H]4C=C[C@H]3C4)CC2)c2ccccc21)c1ccoc1 [compound 519] |  |  | < 25 | x (activity was measured to be greater than 5.0 μM) | 25 to 100 | xxx (activity was measured to be less than 2.0 μM) |  |
| O=C(C1CC1)N1CC2(CCN(C3CC4CCC(C3)N4C(=O)OC3CCC3)CC2)c2cc(F)ccc21 (stereo not shown) [compound 379] |  |  |  |  |  |  | pEC50 (M4 muscarinic receptor; [8]): 6.00 to 7.00; Emax (M4 muscarinic receptor; [9]): 65 to 85%; pEC50 (M1 muscarinic receptor; [10]): > 7.00; Emax (M1 muscarinic receptor; [11]): 65 to 85% |
| CC#CCOC(=O)N1CC[C@H](CN2CCC3(CC2)CN(C(C)=O)c2cccc(C)c23)C1 [compound 445] |  |  | 25 to 100 | xxx (activity was measured to be less than 2.0 μM) | 25 to 100 | xxx (activity was measured to be less than 2.0 μM) |  |
| CCOC(=O)N1C2CCC1CC(N1CCC3(CC1)CN(C(C)=O)c1ccc(Cl)cc13)C2 (stereo not shown) [compound 417] |  |  |  |  |  |  | pEC50 (M4 muscarinic receptor; [8]): < 6.00; Emax (M4 muscarinic receptor; [9]): < 65%; pEC50 (M1 muscarinic receptor; [10]): 6.00 to 7.00; Emax (M1 muscarinic receptor; [11]): < 65% |
| CC(=O)CN1CC2(CCN(C3CCCCC3)CC2)c2cc(F)ccc21 [compound 796] |  |  | 25 to 100 | xxx (activity was measured to be less than 2.0 μM) | 25 to 100 | xxx (activity was measured to be less than 2.0 μM) |  |
| CC(=O)N[C@H]1CCC2(CCN(C3CC(C)(C)CC(C)(C)C3)CC2)c2ccccc21 [compound 504] |  |  | < 25 | x (activity was measured to be greater than 5.0 μM) | < 25 | x (activity was measured to be greater than 5.0 μM) |  |
| CC(=O)NC1CCC2(CCN(CCC3CCN(C(=O)OCC(C)C)CC3)CC2)c2ccccc21 (stereo not shown) [compound 962] |  |  | < 25 |  | < 25 |  | M4 Activity (M4 muscarinic receptor; [12]): x (activity was measured to be greater than 5.0 μM); M1 Activity (M1 muscarinic receptor; [13]): x (activity was measured to be greater than 5.0 μM) |
| CC(=O)N1CC2(CCN(C3CCCN(C(=O)OCCF)CC3)CC2)c2cc(F)ccc21 (stereo not shown) [compound 168] | xx (activity was measured to be between 0.1 μM and 1.0 μM) | xx (activity was measured to be between 0.1 μM and 1.0 μM) |  |  |  |  | Emax (M4 muscarinic receptor; [2]): > 85% |
| CCOC(=O)N1CCC(N2CCC3(CC2)CN(C(C)=O)c2c(-c4ccccc4F)cccc23)CC1 [compound 661] |  |  | < 25 | x (activity was measured to be greater than 5.0 μM) | 25 to 100 | x (activity was measured to be greater than 5.0 μM) |  |
| CCOC(=O)N1CCC(N2CCC3(CC2)CN(C(C)=O)c2ccc(-c4ccoc4)cc23)CC1 [compound 128] | xx (activity was measured to be between 0.1 μM and 1.0 μM) | xxx (activity was measured to be less than 0.1 μM) |  |  |  |  | Emax (M4 muscarinic receptor; [2]): < 65%; Emax (M1 muscarinic receptor; [4]): < 65% |
| COC(=O)N1C2CCC1CC(N1CCC3(CC1)CN(C(=O)c1cc(C)n(C)n1)c1ccc(F)cc13)C2 (stereo not shown) [compound 44] | xx (activity was measured to be between 0.1 μM and 1.0 μM) | xxx (activity was measured to be less than 0.1 μM) |  |  |  |  | Emax (M4 muscarinic receptor; [2]): > 85%; Emax (M1 muscarinic receptor; [4]): 65 to 85% |
| Clc1ccc2c(c1)C1(CCN(CC3CCOCC3)CC1)CO2 [compound 415] |  |  |  |  |  |  | pEC50 (M4 muscarinic receptor; [8]): < 6.00; Emax (M4 muscarinic receptor; [9]): < 65%; pEC50 (M1 muscarinic receptor; [10]): < 6.00; Emax (M1 muscarinic receptor; [11]): < 65% |
| COc1ccc(N2CCC(N3CCC4(CC3)CN(C(=O)N(C)C)c3ccc(F)cc34)CC2)cc1 [compound 990] |  |  | 25 to 100 |  | 25 to 100 |  | M4 Activity (M4 muscarinic receptor; [12]): x (activity was measured to be greater than 5.0 μM); M1 Activity (M1 muscarinic receptor; [13]): xx (activity was measured to be between 2.0 μM and 5.0 μM) |
| CC(=O)N1CC2(CCN(C3CC4CCC(C3)N4C(=O)O[C@@H]3CCOC3)CC2)c2ccccc21 (stereo partly shown) [compound 970] |  |  | 25 to 100 |  | 25 to 100 |  | M4 Activity (M4 muscarinic receptor; [12]): xxx (activity was measured to be less than 2.0 μM); M1 Activity (M1 muscarinic receptor; [13]): xxx (activity was measured to be less than 2.0 μM) |
| CC(C)OC(=O)N1C2CCC1CC(N1CCC3(CC1)CN(C(=O)N(C)C)c1ccc(F)cc13)C2 (stereo not shown) [compound 108] | xx (activity was measured to be between 0.1 μM and 1.0 μM) | xxx (activity was measured to be less than 0.1 μM) |  |  |  |  | Emax (M4 muscarinic receptor; [2]): < 65%; Emax (M1 muscarinic receptor; [4]): 65 to 85% |
| CN(C)C(=O)N1CC2(CCN(C3CC4CCC(C3)N4C(=O)O[C@@H]3CCOC3)CC2)c2cc(F)ccc21 (stereo partly shown) [compound 188] | x (activity was measured to be greater than 1.0 μM) | x (activity was measured to be greater than 1.0 μM) |  |  |  |  | Emax (M4 muscarinic receptor; [2]): 65 to 85%; Emax (M1 muscarinic receptor; [4]): < 65% |
| CC(=O)N1CC2(CCN(C3CCN(C(=O)OC(C)C)CC3)CC2)c2cc(C)ccc21 [compound 380] |  |  |  |  |  |  | pEC50 (M4 muscarinic receptor; [8]): 6.00 to 7.00; Emax (M4 muscarinic receptor; [9]): 65 to 85%; pEC50 (M1 muscarinic receptor; [10]): > 7.00; Emax (M1 muscarinic receptor; [11]): 65 to 85% |
| c1ccc2c(c1)NCC21CCN(C2CC3CCC(C3)C2)CC1 (stereo not shown) [compound 420] |  |  |  |  |  |  | pEC50 (M4 muscarinic receptor; [8]): < 6.00; Emax (M4 muscarinic receptor; [9]): < 65%; pEC50 (M1 muscarinic receptor; [10]): 6.00 to 7.00; Emax (M1 muscarinic receptor; [11]): < 65% |
| CC(=O)N1CC2(CCN(CC3CCN(C(=O)O[C@@H]4CCOC4)CC3)CC2)c2cc(F)ccc21 [compound 82] | xx (activity was measured to be between 0.1 μM and 1.0 μM) | xxx (activity was measured to be less than 0.1 μM) |  |  |  |  | M4 Efficacy (M4 muscarinic receptor; [1]): xx (efficacy was calculated to be between 85% and 65%); M1 Efficacy (M1 muscarinic receptor; [3]): xx (efficacy was calculated to be between 85% and 65%) |
| CCC#CCOC(=O)N1CC[C@H](CN2CCC3(CC2)CN(C(C)=O)c2cccc(C)c23)C1 [compound 455] |  |  | 25 to 100 | xxx (activity was measured to be less than 2.0 μM) | 25 to 100 | xxx (activity was measured to be less than 2.0 μM) |  |
